The source of these data is US10501421B1, “Substituted benzimidazoles as modulators of Ras signaling” (VANDERBILT UNIVERSITY, priority 2017, dated 2019).

The EC50 is the concentration at which the effect is half-maximal. A high value points to lower potency in that assay. What is called Ki is a measure of affinity in units of concentration, obtained from inhibition or displacement.

Counter-ions that a name gives are not always drawn. Some results are limits rather than exact numbers.

The target in test [1] is Ras GEF SOS (Son of Sevenless) (Homo sapiens, UniProt Q07889). As to the kind of experiment: SOS-mediated nucleotide exchange on Ras (BODIPY-GDP fluorescence). It is filed as biochemical. The following applies: SOS-mediated exchange of BODIPY-GDP for GTP on Ras. Summed up:
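Ras loaded with BODIPY-GDP was mixed in buffer with test compound, then GTP and SOS. Fluorescence change from labeled GDP/GTP exchange was followed over time, and rates came from single-exponential fits. EC50 came from a four-parameter fit of mean rate against compound concentration.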

The target of test [2] is T1, Son of Sevenless (SOS) (Homo sapiens, UniProt Q07889).
T1 sequence (Q07889 564-1049 limits assumed): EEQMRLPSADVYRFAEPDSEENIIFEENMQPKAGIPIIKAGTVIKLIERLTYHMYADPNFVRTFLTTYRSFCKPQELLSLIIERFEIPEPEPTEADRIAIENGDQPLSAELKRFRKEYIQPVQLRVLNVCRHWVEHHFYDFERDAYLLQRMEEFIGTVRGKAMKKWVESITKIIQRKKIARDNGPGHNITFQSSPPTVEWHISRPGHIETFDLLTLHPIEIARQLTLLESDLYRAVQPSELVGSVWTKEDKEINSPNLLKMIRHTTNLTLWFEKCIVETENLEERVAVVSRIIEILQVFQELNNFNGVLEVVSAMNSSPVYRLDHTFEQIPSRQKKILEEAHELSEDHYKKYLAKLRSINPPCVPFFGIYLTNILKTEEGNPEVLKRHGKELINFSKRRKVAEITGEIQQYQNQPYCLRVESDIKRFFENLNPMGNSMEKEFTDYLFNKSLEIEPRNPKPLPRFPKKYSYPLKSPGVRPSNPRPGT
Kind of test: Binding to SOS, fluorescence polarization anisotropy (FPA) probe displacement. The following applies: displacement of FITC-conjugated probe (Example 285), affinity calculated from IC50. Summed up: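 A FITC-conjugated probe compound was incubated with SOS in buffer, and its displacement was tracked as a change in fluorescence anisotropy across a test-compound dose range. IC50 came from a four-parameter variable-slope fit, and binding affinity was calculated from it.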

Sequence of Ras GEF SOS (Son of Sevenless) (P01112 1-166 partner limits assumed, one chain of several): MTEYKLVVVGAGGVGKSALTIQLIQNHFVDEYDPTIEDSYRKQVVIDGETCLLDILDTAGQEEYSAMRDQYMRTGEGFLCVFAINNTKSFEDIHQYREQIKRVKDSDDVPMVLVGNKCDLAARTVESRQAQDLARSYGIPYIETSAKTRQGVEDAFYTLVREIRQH

Regarding `COCCN1CCN(c2cc(C)cc3c2nc(N2CCNCC2)n3Cc2cc(C)c(F)c(C)c2)CC1` [Example 195, 1-(4-fluoro-3,5-dimethylbenzyl)-4-(4-(2-methoxyethyl)piperazin-1-yl)-6-methyl-2-(piperazin-1-yl)-1H-benzo[d]imidazole trifluoroacetate], in test [1], the EC50 lay within 1 to 5 µM. Further, the Ki in test [2] was 500 to 1000 nM.

The compound `Cc1cc2nc(NCCN)n(CC3CCCCC3)c2cc1C` [Example 38, N^1-(1-(cyclohexylmethyl)-5,6-dimethyl-1H-benzo[d]imidazol-2-yl)ethane-1,2-diamine trifluoroacetate] showed an EC50 in test [1] of 5 to 30 µM. In test [2], the Ki was above 5000 nM.

Consider `CC(C)n1nccc1-c1cc(Cl)cc2c1nc(N1CCNCC1)n2Cc1ccc(F)c(Cl)c1` [Example 176, 6-chloro-1-(3-chloro-4-fluorobenzyl)-4-(1-isopropyl-1H-pyrazol-5-yl)-2-(piperazin-1-yl)-1H-benzo[d]imidazole trifluoroacetate], for which, in test [1], the EC50 was in the range of 1 to 5 µM. In test [2], the Ki was below 500 nM.

Take `Cc1cc2nc(N3CC(CN)C3)n(Cc3ccc(F)c(Cl)c3)c2cc1C` [Example 288, (1-(1-(3-chloro-4-fluorobenzyl)-5,6-dimethyl-1H-benzo[d]imidazol-2-yl)azetidin-3-yl)methanamine]: the 50% effective concentration (EC50) in test [1] is below 1 µM. In test [2], the Ki is 1000 to 5000 nM.

Consider `CCc1cc2c(cc1C)nc(N1CCNCC1)n2Cc1ccc(F)c(CC)c1` [Example 67, 6-ethyl-1-(3-ethyl-4-fluorobenzyl)-5-methyl-2-(piperazin-1-yl)-1H-benzo[d]imidazole trifluoroacetate], for which, in test [1], the concentration for a half-maximal effect (EC50) is 5 to 30 µM. In addition, the Ki in test [2] is above 5000 nM.

The compound `Cc1cc(OC2CCNCC2)c2nc(N3CCNCC3)n(Cc3cc(C)c(F)c(C)c3)c2c1` [Example 315, 1-(4-fluoro-3,5-dimethylbenzyl)-6-methyl-2-(piperazin-1-yl)-4-(piperidin-4-yloxy)-1H-benzo[d]imidazole] returned an EC50 in test [1] below 1 µM. Moreover, the inhibition constant Ki in test [2] is 1000 to 5000 nM.

Turning to `Cc1cc(Cn2c(NCC3CNC3)nc3c(N4CCN(C)CC4)cc(Cl)cc32)cc(C)c1F` [Example 301, N-(azetidin-3-ylmethyl)-6-chloro-1-(4-fluoro-3,5-dimethylbenzyl)-4-(4-methylpiperazin-1-yl)-1H-benzo[d]imidazol-2-amine], the concentration giving a half-maximal response (EC50) in test [1] lay in the range of 1 to 5 µM. Further, the inhibitory constant (Ki) in test [2] was below 500 nM.

Take `Cc1cc(Cn2c(N3CCNCC3)nc3c(N4CCOCC4)cc(Cl)cc32)cc(C)c1F` [Example 312, 4-(6-chloro-1-(4-fluoro-3,5-dimethylbenzyl)-2-(piperazin-1-yl)-1H-benzo[d]imidazol-4-yl)morpholine]: the EC50 in test [1] is below 1 µM. For the same compound, in test [2], the Ki was below 500 nM.

Consider `OCc1cc(Cl)cc2c1nc(N1CCNCC1)n2Cc1ccc(F)c(Cl)c1` [Example 278, [6-chloro-1-[(3-chloro-4-fluorophenyl)methyl]-2-piperazin-1-ylbenzimidazol-4-yl]methanol], for which the EC50 in test [1] is below 1 µM. Also, the Ki in test [2] is 1000 to 5000 nM.

In test [1], `Cc1cc2nc(N3CCCNCC3)n(Cc3ccc(F)c(Cl)c3)c2cc1C` [Example 36, 1-(3-chloro-4-fluorobenzyl)-2-(1,4-diazepan-1-yl)-5,6-dimethyl-1H-benzo[d]imidazole trifluoroacetate] came in with an EC50 of 5 to 30 µM. For the same compound, in test [2], the Ki was above 5000 nM.

On to `CC(C)CN1CC[C@@H](C(=O)c2ccccc2)[C@H]1c1cc(Cl)cc2c1nc(N1CCNCC1)n2Cc1ccc(F)c(Cl)c1` [Example 150, ((2S,3R)-2-(6-chloro-1-(3-chloro-4-fluorobenzyl)-2-(piperazin-1-yl)-1H-benzo[d]imidazol-4-yl)-1-isobutylpyrrolidin-3-yl)(phenyl)methanone trifluoroacetate], for which the concentration giving a half-maximal response (EC50) in test [1] lay within 5 to 30 µM. For the same compound, the Ki in test [2] is above 5000 nM.

The compound `Cc1ccc2nc([C@@H]3CCC(=O)N3)n(Cc3ccc(F)c(Cl)c3)c2c1` [Example 274, (5S)-5-[1-[(3-chloro-4-fluorophenyl)methyl]-6-methylbenzimidazol-2-yl]pyrrolidin-2-one] showed an EC50 in test [1] of 1 to 5 µM. The inhibitory constant (Ki) in test [2] was above 5000 nM.

In test [1], `Cc1cc(Cn2c(N3CCNCC3)nc3c(OC4CCNC4)cccc32)ccc1F` (stereo not shown) [Example 206, 1-(4-fluoro-3-methylbenzyl)-2-(piperazin-1-yl)-4-(pyrrolidin-3-yloxy)-1H-benzo[d]imidazole] came in with a concentration for a half-maximal effect (EC50) below 1 µM. Further, the Ki in test [2] is above 5000 nM.

In turn, `Cc1cc2nc(N3CCN(C)CC3)n(Cc3ccc(F)cc3)c2cc1C` [Example 24, 1-(4-fluorobenzyl)-5,6-dimethyl-2-(4-methylpiperazin-1-yl)-1H-benzo[d]imidazole trifluoroacetate] had a 50% effective concentration (EC50) in test [1] of 1 to 5 µM. For the same compound, the inhibition constant Ki in test [2] is above 5000 nM.

`Cc1cc2c(nc(N3CCNCC3)n2Cc2ccc(F)c(C)c2)c(CNCCC(C)C)n1` [Example 234, N-((1-(4-fluoro-3-methylbenzyl)-6-methyl-2-(piperazin-1-yl)-1H-imidazo[4,5-c]pyridin-4-yl)methyl)-3-methylbutan-1-amine] had an EC50 in test [1] of 5 to 30 µM. In addition, the Ki in test [2] is above 5000 nM.

As for `Cc1cc2c(nc(NCCN)n2Cc2ccc(F)c(C)c2)c(-c2ccccc2C)n1` [Example 224, N^1-(1-(4-fluoro-3-methylbenzyl)-6-methyl-4-(o-tolyl)-1H-imidazo[4,5-c]pyridin-2-yl)ethane-1,2-diamine], the EC50 in test [1] lay within 5 to 30 µM. Moreover, the Ki in test [2] is above 5000 nM.

In test [1], `O=C(O)Cc1cc(Cl)cc2c1nc(N1CCNCC1)n2Cc1ccc(F)c(Cl)c1` [Example 311, 2-(6-chloro-1-(3-chloro-4-fluorobenzyl)-2-(piperazin-1-yl)-1H-benzo[d]imidazol-4-yl)acetic acid] displayed a concentration for a half-maximal effect (EC50) below 1 µM. In test [2], the Ki was 1000 to 5000 nM.

`Cc1cc2nc(N3CCNCC3)n(Cc3ccc(Br)c(Cl)c3)c2cc1C` [Example 39, 1-(4-bromo-3-chlorobenzyl)-5,6-dimethyl-2-(piperazin-1-yl)-1H-benzo[d]imidazole trifluoroacetate] yielded an EC50 in test [1] of 1 to 5 µM. Besides, the inhibition constant Ki in test [2] is above 5000 nM.

On to `Cc1cc(C2=CCNCC2)c2nc(N3CCNCC3)n(Cc3cc(C)c(F)c(C)c3)c2c1` [Example 103, 1-(4-fluoro-3,5-dimethylbenzyl)-6-methyl-2-(piperazin-1-yl)-4-(1,2,3,6-tetrahydropyridin-4-yl)-1H-benzo[d]imidazole], for which, in test [1], the concentration for a half-maximal effect (EC50) was in the range of 1 to 5 µM. The inhibitory constant (Ki) in test [2] was below 500 nM.

The compound `Cc1cc(NC[C@H]2CCNC2)c2nc(N3CCNCC3)n(Cc3cc(C)c(F)c(C)c3)c2c1` [Example 198, (S)-1-(4-fluoro-3,5-dimethylbenzyl)-6-methyl-2-(piperazin-1-yl)-N-(pyrrolidin-3-ylmethyl)-1H-benzo[d]imidazol-4-amine trifluoroacetate] displayed an EC50 in test [1] of 1 to 5 µM. For the same compound, the Ki in test [2] was 500 to 1000 nM.

Compound `Cc1cc2c(cc1Br)nc(N1CCNCC1)n2Cc1ccc(F)c(Cl)c1` [Example 70, 5-bromo-1-(3-chloro-4-fluorobenzyl)-6-methyl-2-(piperazin-1-yl)-1H-benzo[d]imidazole trifluoroacetate] came in with an EC50 in test [1] of 1 to 5 µM. In addition, the Ki in test [2] was 1000 to 5000 nM.

In test [1], `Cc1cc2nc(NCCN3CCOCC3)n(Cc3cc(F)cc(F)c3)c2cc1C` [Example 31, 1-(3,5-difluorobenzyl)-5,6-dimethyl-N-(2-morpholinoethyl)-1H-benzo[d]imidazol-2-amine trifluoroacetate] registered an EC50 of 5 to 30 µM. The Ki in test [2] is above 5000 nM.

As to `Cc1cc2nc(NCCN)n(Cc3ccc(F)c(Cl)c3)c2cc1Cl` [Example 69, N^1-(6-chloro-1-(3-chloro-4-fluorobenzyl)-5-methyl-1H-benzo[d]imidazol-2-yl)ethane-1,2-diamine trifluoroacetate], in test [1], the EC50 was below 1 µM. Further, the Ki in test [2] was 500 to 1000 nM.

In test [1], `COc1ccc(-n2nccc2-c2cc(Cl)cc3c2nc(N2CCNCC2)n3Cc2ccc(F)c(Cl)c2)cc1` [Example 168, 6-chloro-1-(3-chloro-4-fluorobenzyl)-4-(1-(4-methoxyphenyl)-1H-pyrazol-5-yl)-2-(piperazin-1-yl)-1H-benzo[d]imidazole trifluoroacetate] returned a 50% effective concentration (EC50) of 1 to 5 µM. For the same compound, in test [2], the Ki is 500 to 1000 nM.

In the case of `Cc1cc2nc(NCCN)n(Cc3ccc(F)c(Cl)c3)c2cc1C` [Example 17, N1-(1-(3-chloro-4-fluorobenzyl)-5,6-dimethyl-1H-benzo[d]imidazol-2-yl)ethane-1,2-diamine trifluoroacetate], in test [1], the EC50 lay within 1 to 5 µM. For the same compound, in test [2], the inhibitory constant (Ki) is 1000 to 5000 nM.

As for `CCc1cc(Cn2c(NCCN)nc3c(-c4c(C)nn(C)c4C)c(C)c(C)cc32)ccc1Cl` [Example 115, N^1-(1-(4-chloro-3-ethylbenzyl)-5,6-dimethyl-4-(1,3,5-trimethyl-1H-pyrazol-4-yl)-1H-benzo[d]imidazol-2-yl)ethane-1,2-diamine trifluoroacetate], the EC50 in test [1] was in the range of 5 to 30 µM. Also, the Ki in test [2] was above 5000 nM.
